Assay: Pharmacokinetic study in rats after oral administration of Radix Ginseng Rubra or SMS extracts (LC-MS of plasma)
Type: in vivo, Male Sprague-Dawley rats
Design: AUC(0–t) / AUC(0–∞): unit not given here
Conditions: for T max / AUC(0–t) / AUC(0–∞) / C max / t 1/2: rat plasma; for AUC(0–t) / AUC(0–∞) / C max / t 1/2: mean ± SD
Text: A Shimadzu 2020 LC-MS system, with an electrospray ionization interface (ESI) source and Shimadzu LCMS LabSolution Workstation software for data processing, was utilized to perform the analytical procedures. The system includes two Shimadzu LC-20AD pumps, a Shimadzu SIL-20A autosampler, a Shimadzu CTO-20A column oven, a CBM-20A system controller, and a Shimadzu DGU-20A3 online degasser. A Q-array-octapole-quadrupole mass analyzer was used as the detector.
The chromatographic separation was carried on a Diamonsil C18 column (150 mm × 4.6 mm id, 5 μm; Dikma, China) with the mobile phase containing 0.5 mmol/L ammonium chloride in double-distilled water (A) and acetonitrile (B) at a flow rate of 1.0 mL/min. A diverter valve was used to direct 0.3 mL/min HPLC elute to MS detector and 0.7 mL/min elute to a waste container. A gradient elution program was used as follows: 0.01→6.0 min, 38% B; 6.0→6.5 min, 38→50% B; 6.5→15.0 min, 50% B; 15.0→15.5 min, 50→38% B. The column temperature was kept constant at 40°C.
The negative-ion electrospray ionization mode was utilized under the following source conditions: curved desolvation line (CDL) temperature, 250°C; block temperature, 400°C; interface temperature, 350°C; nebulizing gas flow rate, 1.5 L/min; drying gas flow rate, 10 L/min. CDL voltage, 0 V; Q-array DC (direct current) voltage, 0 V; interface voltage and RF ([…] frequency) voltage were fixed as those in tuning. The chlorinated adducts of molecular ions [M + Cl]^− of 20(R)-ginsenoside Rh1 and 20(S)-ginsenoside Rh1 at m/z 673.45, 20(R)-ginsenoside Rg3 and 20(S)-ginsenoside Rg3 at m/z 819.60, and digoxin (IS) at m/z 815.60 were monitored in selected ion monitoring (SIM) mode.
Radix Ginseng Rubra and Radix Ophiopogonis were cut into slices and Fructus Schisandrae was scrunched into powder before use. Three drugs were mixed in the ratio of 1 : 3 : 1.5 and the total weight was 110 g. The mixture was extracted with water for three times (1 : 10, 1 : 8, and 1 : 6, w/v) at 100°C, 1 h for each time. The SMS extract was obtained and condensed to 0.55 g/mL crude drug. 20 g Radix Ginseng Rubra was treated as above and the extract was condensed to 0.1 g/mL crude drug. SMS and Radix Ginseng Rubra concentrated solution was subjected to D101 macroporous resin and eluted with water followed by 95% ethanol. The 95% ethanol eluate was further concentrated to 5.5 g/mL crude drug for SMS and 1.0 g/mL crude drug for Radix Ginseng Rubra before use.
An aliquot of 300 μL plasma sample was transferred into a centrifuge tube together with 10 μL of IS solution. After vortex-mixing for 30 s, the analytes and IS were extracted from plasma with n-butanol for three times (1 : 3, 1 : 2, and 1 : 2, v/v). Then the organic layer was transferred into another centrifuge tube and evaporated to dryness at 37°C. Finally, the residue was reconstituted in 20 μL methanol and centrifuged at 12,000 ×g for 10 min; 10 μL aliquot was injected into chromatographic system for analysis.
Male Sprague-Dawley rats, 193–215 g in weight, were supplied by Shanghai Slater Experimental Animal Feeding Center (Shanghai, China). The rats were kept in an air-conditioned animal quarter at a temperature of 22 ± 2°C and a relative humidity of 50 ± 10%. The animals were acclimatized to the facilities for four days and then fasted with free access to water for 12 h prior to experiment. Animal experiments were carried out in accordance with the Regulations of Experimental Animal Administration issued by the Ministry of Science and Technology of China. All animal protocols were approved by the Ethics Committee on the Care and Use of Laboratory Animals of China pharmaceutical University.
Rats were divided randomly into two groups (5 rats in each time point per group) and given an oral dose of 1.35 mL/100 g Radix Ginseng Rubra and SMS extracts, respectively, which was derived from the dose in clinical practice with correction. […]

[1] = oral Radix Ginseng Rubra extract 1.35 mL/100 g

CC(C)=CCCC(C)(O)C1CCC2C1C(O)CC1C2(C)CC(OC2OC(CO)C(O)C(O)C2O)C2C(C)(C)C(O)CCC21C [20(S)-Rh1, 20(S)-ginsenoside Rh1]
AUCC (oral Radix Ginseng Rubra extract 1.35 mL/100 g, dose-corrected AUC0–∞): 159.20 ± 26.03 | T max [1]: 0.50 h | AUC(0–t) [1]: 157.53 ± 25.46 | AUC(0–∞) [1]: 159.27 ± 26.03 | C max [1]: 152.49 ± 30.98 ng/mL | t 1/2 [1]: 2.85 ± 0.69 h | T max (oral SMS extract 1.35 mL/100 g): 1.50 h | AUC(0–t) (oral SMS extract 1.35 mL/100 g): 409.48 ± 62.23 | AUC(0–∞) (oral SMS extract 1.35 mL/100 g): 419.75 ± 65.31 | C max (oral SMS extract 1.35 mL/100 g): 195.34 ± 44.91 ng/mL | t 1/2 (oral SMS extract 1.35 mL/100 g): 4.21 ± 1.05^∗ h

From paper PMC5460445, “Pharmacokinetic Comparison of 20(R)- and 20(S)-Ginsenoside Rh1 and 20(R)- and 20(S)-Ginsenoside Rg3 in Rat Plasma following Oral Administration of Radix Ginseng Rubra and Sheng-Mai-San Extracts” (Evidence-based Complementary and Alternative Medicine : eCAM, 2017)
